# Assay results taken from PubChem BioAssay AID608 (Sanford-Burnham Center for Chemical Genomics, 2007).
# The source made the active and inactive calls. How the calls were made is not given here.
# Molecular target: Peptidyl-prolyl cis-trans isomerase FKBP1A (Homo sapiens) (UniProt P62942)
# Test: FKBP12 binders, biophysical, NMR detection (AID 608)
# Conditions: NMR binding, purified FKBP12
# Chain of Peptidyl-prolyl cis-trans isomerase FKBP1A (Homo sapiens) (P62942 whole entry, looked up): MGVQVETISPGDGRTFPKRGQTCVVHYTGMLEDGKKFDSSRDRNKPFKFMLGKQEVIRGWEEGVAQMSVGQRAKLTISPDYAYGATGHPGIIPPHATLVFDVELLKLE
row,SMILES,Kd
1,COC(=O)C[C@H]1C(C)(C)C(OC(C)=O)[C@]2(O)C=C3C(CC[C@]4(C)C3CC(=O)O[C@H]4c3ccoc3)C1(C)C2=O (some centres undefined),> 4 mM (inactive)
2,Oc1cc(O)c2c(c1)O[C@H](c1cc(O)c(O)c(O)c1)[C@H](O)C2,> 4 mM (inactive)
3,Cc1nn(C)c2sc(CO)cc12,> 4 mM (inactive)
4,COc1ccc2c(C)cc(=O)oc2c1,> 4 mM (inactive)
5,COC(=O)C1[C@H]2C[C@H]3c4[nH]c5ccccc5c4CCN3C[C@@H]2CC[C@@H]1O (some centres undefined),> 4 mM (inactive)
6,C=C[C@](C)(O)CCC=C(C)C,> 4 mM (inactive)
7,NC(=O)Cn1cnc(-c2ccc(F)cc2)c1,> 4 mM (inactive)
8,CNC(=O)c1ccccc1-c1ccccc1,> 4 mM (inactive)
9,O=C(NCc1ccccc1)c1cnsn1,> 4 mM (inactive)
10,CC1(C)N=C2C(=N)C=CC=C2N1O,> 4 mM (inactive)
11,COc1c2ccoc2cc2oc(C)cc(=O)c12,> 4 mM (inactive)
12,N[C@@H](C(=O)O)[C@@H](O)[C@H](O)[C@H](O)CO,> 4 mM (inactive)
13,Cc1nccc(-c2cccc(N)c2)n1,> 4 mM (inactive)
14,COC(=O)c1ccc2nccnc2c1,> 4 mM (inactive)
15,CS(=O)(=O)Cc1ccccc1,> 4 mM (inactive)
16,O=C1CSC(=Nc2cccc(C(F)(F)F)c2)N1,> 4 mM (inactive)
17,Cc1c(C(=O)O)cnn1-c1ccccc1,> 4 mM (inactive)
18,COc1cc(OC)c(OC)cc1C=O,> 4 mM (inactive)
19,NCc1ccc(-c2csnn2)cc1,> 4 mM (inactive)
20,c1ccc(CCc2nc(-c3cccnc3)no2)cc1,> 4 mM (inactive)
21,Nc1ccc(N2CCCCC2)cc1,> 4 mM (inactive)

row,SMILES,Kd
1,NC(=O)c1c[nH]c2ccccc12,> 4 mM (inactive)
2,COc1cc2c(cc1OC)C1(O)C(=O)c3ccc(O)c(C(=O)O)c3OC1CO2 (centres undefined),> 4 mM (inactive)
3,CCCn1c(S(=O)(=O)O)nc2ccccc21,> 4 mM (inactive)
4,CC[C@H]1CN2CCC1C[C@@H]2[C@@H](O)c1ccnc2ccc(OC)cc12 (some centres undefined),> 4 mM (inactive)
5,CC12CN3CC(C)(CN(C1)C3c1cccs1)C2O (centres undefined),> 4 mM (inactive)
6,COC(=O)c1cc(C)on1,> 4 mM (inactive)
7,CC(=O)Nc1cccc(-c2nc3ccccc3c(=O)o2)c1,> 4 mM (inactive)
8,C[C@H]1CCCC(=O)CCC/C=C/c2cc(O)cc(O)c2C(=O)O1,> 4 mM (inactive)
9,CC(C)(C)C(=O)Nc1ncc(C(F)(F)F)cc1Cl,> 4 mM (inactive)
10,Nc1ccccc1N1CCOCC1,> 4 mM (inactive)
11,CN1CCN(c2ccc(C(=O)O)cc2)CC1,> 4 mM (inactive)
12,O=c1cnnc(NCc2ccc(F)cc2)[nH]1,> 4 mM (inactive)
13,Cc1cccc(NS(=O)(=O)c2cccs2)n1,> 4 mM (inactive)
14,COC(=O)[C@@H]1OC(=O)C2OC23[C@@]1(C)CCC1[C@]2(C)C(C[C@H](O)[C@]13C)C(C)(C)[C@H](OC(C)=O)C[C@@H]2OC(C)=O (some centres undefined),> 4 mM (inactive)
15,COC1CC(O[C@H]2CC[C@]3(C=O)C4CC[C@]5(C)C(C6=CC(=O)OC6)CC[C@]5(O)C4CC[C@]3(O)C2)OC(C)C1O (some centres undefined),> 4 mM (inactive)
16,O=C(Nc1cccnc1)c1cccs1,> 4 mM (inactive)
17,CC(=O)O[C@H]1C[C@@H](OC(C)=O)C(C)(C)C2CC(=O)[C@]3(C)C(CC[C@@]4(C)[C@H](c5ccoc5)OC(=O)[C@H]5O[C@]543)[C@]21C (some centres undefined),> 4 mM (inactive)
18,COc1cc(C)c(Cl)cc1S(=O)(=O)N(C)C,> 4 mM (inactive)
19,O=C1CNC(=O)/C1=C/c1ccc(O)cc1,> 4 mM (inactive)
20,O=c1c2ccccc2nc2n1CCS2,> 4 mM (inactive)
21,Cc1ccc(N2C(=O)CC(Sc3ncn[nH]3)C2=O)cc1 (centres undefined),> 4 mM (inactive)

row,SMILES,Kd
1,Cn1c(NCc2ccco2)nc2ccccc21,> 4 mM (inactive)
2,Cc1[nH]c2ccccc2c1CN(C)C,> 4 mM (inactive)
3,Cc1nc(-c2cccc(N)c2)cs1,> 4 mM (inactive)
4,S=C(c1ccc2c(c1)OCO2)N1CCCC1,> 4 mM (inactive)
5,NC(=O)COc1cccc2cccnc12,> 4 mM (inactive)
6,CS(=O)(=O)N1CCN(C(=O)c2ccccc2)C1,> 4 mM (inactive)
7,CS(=O)(=O)N1CCN(C(=O)c2ccccc2)CC1,> 4 mM (inactive)
8,O=[N+]([O-])c1cccc(-c2c[n+](=O)c3c(n2[O-])CCC3)c1,> 4 mM (inactive)
9,COC(=O)C1=CCCN(C)C1,> 4 mM (inactive)
10,C[C@@H]1CC[C@@]23CCC4(C)[C@@](C=CC5[C@@]6(C)CC[C@H](O)C(C)(C)C6CC[C@]54C)(OC2=O)C3[C@H]1C (some centres undefined),> 4 mM (inactive)
11,CSc1nc2nccc(N)n2n1,> 4 mM (inactive)
12,O=C(O)CN(CCCc1ccccc1)CC(=O)O,> 4 mM (inactive)
13,C=C[C@@](C)(O)CCC1C(=C)C[C@H](O)C2C(C)(C)CCCC12C (some centres undefined),> 4 mM (inactive)
14,O=c1nc(N2CCOCC2)nc2n1CCO2,> 4 mM (inactive)
15,O=C1NC(=S)NC(=O)C1=Cc1ccco1,> 4 mM (inactive)
16,O=C(NCO)c1ccc([N+](=O)[O-])cc1,> 4 mM (inactive)
17,Cn1ncc(NC(=O)Nc2ccc(F)cc2F)c1C(N)=O,> 4 mM (inactive)
18,COCCn1c(N)nc2c1c(=O)[nH]c(=O)n2C,> 4 mM (inactive)
19,CS(=O)(=O)NC1CCN(Cc2ccccc2)CC1,> 4 mM (inactive)
20,CC(=O)Nc1c(Cl)cnn(-c2ccccc2)c1=O,> 4 mM (inactive)
21,Cc1ccc(CN2C3=NC(=O)CN3c3ccccc32)cc1,> 4 mM (inactive)

row,SMILES,Kd
1,O=C1CSC(=Nc2ccc(F)cc2)N1,> 4 mM (inactive)
2,COc1ccc(-c2noc(-c3ccco3)n2)cc1OC,> 4 mM (inactive)
3,COCc1cc(Cl)nc(-c2csc(C)n2)n1,> 4 mM (inactive)
4,CC(C)=CCCC1(C)C=Cc2c(O)c3c(c(CC=C(C)C)c2O1)OC12C(=CC4CC1C(C)(C)OC2(C/C=C(/C)C(=O)O)C4O)C3=O (centres undefined),> 4 mM (inactive)
5,COc1ccc(S(=O)(=O)Nc2ccccn2)c(C)c1C,> 4 mM (inactive)
6,OCC1CNc2ccccc2O1 (centres undefined),> 4 mM (inactive)
7,CC(=O)Nc1ccc(NC2SC(=O)NC2=O)cc1 (centres undefined),> 4 mM (inactive)
8,COC(=O)c1ccccc1NC(=O)c1cc[n+]([O-])cc1,> 4 mM (inactive)
9,Oc1cccc2[nH]ccc12,> 4 mM (inactive)
10,O=C(O)CSCC(=O)Nc1cccc(O)c1,> 4 mM (inactive)
11,COC(=O)C1CCc2ccccc2N1 (centres undefined),> 4 mM (inactive)
12,O=S1(=O)C=CC(Nc2ccccc2)C1 (centres undefined),> 4 mM (inactive)
13,O=C(c1ccc(Cl)c(F)c1F)N1CCCC1,> 4 mM (inactive)
14,Nc1ccnc(C(=O)O)c1,> 4 mM (inactive)
15,O=C(COc1ccccc1Cl)N1CCCC1,> 4 mM (inactive)
16,O=C(Nc1cccc2ncccc12)c1cccnc1,> 4 mM (inactive)
17,CC1CCN(C(=S)c2ccccc2O)CC1,> 4 mM (inactive)
18,COc1cccc(-c2cc(=O)c3cc(OC)ccc3o2)c1,> 4 mM (inactive)
19,CC(C)(CO)NC(=O)c1ccccc1F,> 4 mM (inactive)
20,CN1C2CC(OC(=O)[C@H](CO)c3ccccc3)C[C@H]1[C@H]1OC21 (some centres undefined),> 4 mM (inactive)
21,CC1(C)SCC(C(=O)O)N1C=O (centres undefined),> 4 mM (inactive)
